Calls of active or inactive are those of the source. The calls are words filed in the database; no cut-off is given here. Where only a bound is given, the exact number is not on record here.

The results in this text go back to ChEMBL document CHEMBL3046825, “Molecular Mechanism for Selective Toxicity of Nicotinoids and Neonicotinoids” (J Pestic Sci, 1995).

Experiment [1] deals with Acetylcholine receptor subunit alpha (Torpedo californica) (UniProt P02710). In words: Increase in [3H]PCP binding to nAChR in Torpedo nobiliana electric organs. The settings on record: Electric organ.
Chain of Acetylcholine receptor subunit alpha (Torpedo californica) (P02710 whole entry): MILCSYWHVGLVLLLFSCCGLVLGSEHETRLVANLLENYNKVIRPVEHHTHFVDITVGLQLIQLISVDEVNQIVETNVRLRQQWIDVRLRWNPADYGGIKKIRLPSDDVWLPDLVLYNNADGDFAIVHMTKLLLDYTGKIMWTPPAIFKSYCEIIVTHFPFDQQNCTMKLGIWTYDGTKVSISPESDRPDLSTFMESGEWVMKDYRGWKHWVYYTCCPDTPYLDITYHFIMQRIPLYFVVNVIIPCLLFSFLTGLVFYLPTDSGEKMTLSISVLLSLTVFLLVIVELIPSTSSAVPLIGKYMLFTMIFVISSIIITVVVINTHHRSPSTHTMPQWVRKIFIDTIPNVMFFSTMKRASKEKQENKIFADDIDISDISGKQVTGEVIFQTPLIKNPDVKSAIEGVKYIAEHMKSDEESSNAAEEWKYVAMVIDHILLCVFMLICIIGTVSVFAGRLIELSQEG
The target is the same in experiment [2]. In words: Increase in [3H]PCP binding to nAChR in Torpedo nobiliana electric organs in presence of carbachol. The settings on record: Electric organ.
Experiment [3] can be described thus: Displacement of [3H]alpha-BGT from nAChR in Apis mellifera (honeybee) head.
Experiment [4] in a line: Displacement of [3H]nicotine from nAChR in Sprague-Dawley Rattus norvegicus (rat) whole brain homogenates. It counts as tissue-based.
In experiment [5] the target is Acetylcholine receptor subunit alpha (Torpedo californica) (UniProt P02710). In words: Inhibition of [3H]PCP binding to nAChR in Torpedo nobiliana electric organs in presence of carbachol. The settings on record: Electric organ.
Experiment [6] relates to Apis mellifera. In words: Displacement of [3H]alpha-BGT from nAChR in Apis mellifera (honeybee) head at 1000 uM.
Experiment [7] deals with Acetylcholine receptor subunit alpha (Torpedo californica) (UniProt P02710). In words: Displacement of [3H]alpha-BGT from nAChR in Torpedo nobiliana electric organs at 1000 uM. The settings on record: Electric organ.
The species entered for experiment [8] is Rattus norvegicus. Nature of the experiment: Displacement of [3H]nicotine from nAChR in Sprague-Dawley Rattus norvegicus (rat) whole brain homogenates at 1000 uM. It is filed as tissue-based.
The target of experiment [9] is Acetylcholine receptor subunit alpha (Torpedo californica) (UniProt P02710). In words: Displacement of [3H]alpha-BGT from nAChR in Torpedo nobiliana electric organs at 300 uM. The settings on record: Electric organ.

As for `CN(C)Cc1ccccn1`, the result in experiment [1] was Active. Besides, in experiment [2], the outcome was inactive.
Taken in the same sequence, the figures for `CN(C)Cc1ccncc1` were “Active” and “inactive”.
Consider `CCN(Cc1ccc(Cl)nc1)/C(=C/[N+](=O)[O-])NC` [NITENPYRAM], for which the IC50 in experiment [3] is 61.3 µM.
In the case of `O=[N+]([O-])/N=C1\NCCN1Cc1ccc(Cl)nc1` [IMIDACLOPRID], the values for the half-maximal inhibitory concentration (IC50) in [3] and in [4] were 1.95 µM and 0.984 µM, respectively. The Activity in experiment [1] is 300%. In experiment [2], the outcome was inactive. Further, the inhibition result in experiment [5] was “inactive”.
For `Cn1cccc1-c1cccnc1` [NICOTYRINE], the values for the inhibition in [6], in experiment [7] and in experiment [8] were 1.5%, 2.55% and 15.6%, respectively. Moreover, the IC50 in experiment [3] and in experiment [4] was above 1000 µM each time.
Turning to `C[N+](C)(C)CCOC(N)=O` [CARBACHOL], the IC50 turned out to be 90.2 µM in [3] and 0.647 µM in experiment [4].
Take `CN(C)Cc1cccnc1`: in [1], the result was Active. Further, in experiment [2], the result was inactive.
As for `CN1CCC[C@H]1c1cccnc1` [NICOTINE], the IC50 came out at 1.25 µM in experiment [3] and 0.0096 µM in experiment [4]. For the same molecule, the result in experiment [1] was Active. The outcome in experiment [2] was inactive.
On to `O=[N+]([O-])C=C1NCCCS1`, for which the IC50 in experiment [3] is 1360 µM; in experiment [4], 109 µM.
Take `C[N+](C)(C)C` [TRETRAMETHYLAMMONIUM IODIDE]: the IC50 in experiment [3] turned out to be 542 µM. For the same molecule, the outcome in [1] was Active. The outcome in [2] was inactive.
On to `C/C(=N\C#N)N(C)Cc1ccc(Cl)nc1` [ACETAMIPRID], for which, in [9], the inhibition was determined as 12.6%. The IC50 in [3] was found to be 8.83 µM.
In the case of `c1cncc([C@@H]2CCCCN2)c1` [ANABASINE], the IC50 in experiment [3] was 1.98 µM; in experiment [4], 0.285 µM.
